According to ChEMBL document CHEMBL5252511 (J Med Chem, 2016):

Assays:
[1] = Drug exposure in brain of triple transgenic C57BL/6 mouse alzheimer disease model at 30 mg/kg,po and measured after 2 hrs; format: ADME, organism-based; conditions: read-out: Ct
[2] = Permeability across apical to basolateral side in human Caco2 cells; format: ADME, cell-based; conditions: Caco-2, read-out: permeability
[3] = Permeability across basolateral to apical side in human Caco2 cells; format: ADME, cell-based; conditions: Caco-2, read-out: permeability
[4] = Permeability of compound at pH 5.5 by PAMPA assay; format: ADME; conditions: read-out: permeability
[5] = Ratio of drug concentration in brain to plasma of triple transgenic C57BL/6 mouse alzheimer disease model at 30 mg/kg,po and measured after 2 hrs; format: ADME, organism-based
[6] = Permeability of compound at pH 7.4 by PAMPA assay; format: ADME; conditions: read-out: permeability
[7] = Drug exposure in plasma of triple transgenic C57BL/6 mouse alzheimer disease model at 30 mg/kg,po and measured after 2 hrs; format: ADME, organism-based

Row | SMILES | concentration at 2 h [1] | Papp A→B [2] | Papp B→A [3] | Papp [4] | Kp at 2 h [5] | Papp [6] | concentration at 2 h [7]
1 | O=C(Nc1cnccc1-c1ccccc1)c1ccnc(NC(=O)C2CC2)c1 | 440 nM | 31.9 ×10⁻⁶ cm/s | 30.1 ×10⁻⁶ cm/s | 52.6 ×10⁻⁶ cm/s | 0.2 | 48.3 ×10⁻⁶ cm/s | 
2 | O=C(Nc1cnccc1-c1ccc(Cl)cc1)c1ccnc(NC(=O)C2CC2)c1 |  | 35.4 ×10⁻⁶ cm/s | 27.9 ×10⁻⁶ cm/s | 90.4 ×10⁻⁶ cm/s |  | 126 ×10⁻⁶ cm/s | 
3 | CCOc1ccncc1NC(=O)c1ccnc(NC(=O)C2CC2)c1 |  |  |  |  |  |  | 47 nM
